Pest or weed control data for 13 compounds are collected here from patent US8598365B2, “Herbicides” (Syngenta Limited, priority 2007, dated 2013).

Type in all cases: in vivo
Assay [1] deals with Setaria faberi (SETFA). In words: Example B post-emergence herbicidal activity. As to conditions: 312 h, rate 250 g/ha, evaluated after 13 days, read-out: Post-emergence activity SETFA (100=total damage to plant; 0=no damage to plant). In short, it runs like this:
(§1)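 Plants in pots of standard soil receive an aqueous spray of the formulated active (acetone/water 50:50, 0.5% Tween 20), either one day after sowing or after eight days of growth. They then grow under glasshouse conditions and are scored for damage after 13 days (100 = total, 0 = none).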

The subject of assay [2] is Alopecurus myosuroides (ALOMY). Description: Example B post-emergence herbicidal activity. As to conditions: 312 h, rate 250 g/ha, evaluated after 13 days, read-out: Post-emergence activity ALOMY (100=total damage to plant; 0=no damage to plant). In short, it runs like this:
as §1

Assay [3] deals with Echinochloa crus-galli (ECHCG). In words: Example B post-emergence herbicidal activity. As to conditions: 312 h, rate 250 g/ha, evaluated after 13 days, read-out: Post-emergence activity ECHCG (100=total damage to plant; 0=no damage to plant). In short, it runs like this:
as §1

In assay [4] the test system is Amaranthus retoflexus (AMARE). In words: Example B post-emergence herbicidal activity. As to conditions: Amaranthus retroflexus, 312 h, rate 250 g/ha, evaluated after 13 days, read-out: Post-emergence activity AMARE (100=total damage to plant; 0=no damage to plant). In short, it runs like this: as §1
Assay [5] concerns Avena fatua (AVEFA). In words: Example B post-emergence herbicidal activity. As to conditions: 312 h, rate 250 g/ha, evaluated after 13 days, read-out: Post-emergence activity AVEFA (100=total damage to plant; 0=no damage to plant). In short, it runs like this: as §1
For assay [6], the system named is Setaria faberi (SETFA). Description: Example B pre-emergence herbicidal activity. As to conditions: 312 h, rate 250 g/ha, evaluated after 13 days, read-out: Pre-Emergence Activity SETFA (100=total damage to plant; 0=no damage to plant). In short, it runs like this:
as §1

Assay [7] has as its system Alopecurus myosuroides (ALOMY). In words: Example B pre-emergence herbicidal activity. As to conditions: 312 h, rate 250 g/ha, evaluated after 13 days, read-out: Pre-Emergence Activity ALOMY (100=total damage to plant; 0=no damage to plant). In short, it runs like this:
as §1

Assay [8] concerns Echinochloa crus-galli (ECHCG). Description: Example B pre-emergence herbicidal activity. As to conditions: 312 h, rate 250 g/ha, evaluated after 13 days, read-out: Pre-Emergence Activity ECHCG (100=total damage to plant; 0=no damage to plant). In short, it runs like this:
as §1

Assay [9] relates to Amaranthus retoflexus (AMARE). Description: Example B pre-emergence herbicidal activity. As to conditions: Amaranthus retroflexus, 312 h, rate 250 g/ha, evaluated after 13 days, read-out: Pre-Emergence Activity AMARE (100=total damage to plant; 0=no damage to plant). In short, it runs like this: as §1
Assay [10] relates to Avena fatua (AVEFA). Description: Example B pre-emergence herbicidal activity. As to conditions: 312 h, rate 250 g/ha, evaluated after 13 days, read-out: Pre-Emergence Activity AVEFA (100=total damage to plant; 0=no damage to plant). In short, it runs like this: as §1

Molecules are shown by their SMILES.

Regarding `Cc1sc(-c2ccc(Cl)cc2F)nc1C1C(=O)[C@@H]2CC[C@@H](C2)C1=O` (stereo partly shown) [Compound T13], the pest or weed control at 250 g/ha in the assay on Setaria faberi (SETFA) [1] is 100%; in assay [2] it was 100%; in [3], 100%; in [4] it was 0%; in the assay with Avena fatua (AVEFA) [5], 90%; with Setaria faberi (SETFA) [6], 100%. The pest or weed control at 250 g/ha is 90% in assay [7], 100% in [8], 0% in assay [9] and 40% in the assay on Avena fatua (AVEFA) [10].
In the case of `COCOc1ccc(-c2nc(C3C(=O)[C@@H]4CC[C@@H](C4)C3=O)c(C)s2)cc1` (stereo partly shown) [Compound T66], the pest or weed control at 250 g/ha in the assay with Setaria faberi (SETFA) [1] was found to be 70%; in [2], 10%; in assay [3], 70%; in assay [4] it was 0%; in the assay on Avena fatua (AVEFA) [5] it was 0%; with Setaria faberi (SETFA) [6], 30%. For the same compound, the pest or weed control at 250 g/ha in assay [7] worked out at 10%; in [8] it was 30%; in [9] it was 0%; in the assay with Avena fatua (AVEFA) [10], 0%.
For `Cc1cc(Cl)ncc1-c1nc(C2C(=O)[C@@H]3CC[C@@H](C3)C2=O)c(C)s1` (stereo partly shown) [Compound T75], the pest or weed control at 250 g/ha in the assay on Setaria faberi (SETFA) [1] came to 90%; in [2] it was 20%; in [3], 70%; in assay [4], 0%; with Avena fatua (AVEFA) [5], 0%; in the assay on Setaria faberi (SETFA) [6], 90%. The pest or weed control at 250 g/ha in assay [7] worked out at 0%; in [8], 40%; in assay [9] it was 0%; in the assay with Avena fatua (AVEFA) [10] it was 20%.
Turning to `CCc1sc(-c2ccc(Cl)cc2)nc1C1=C(OC(=O)C(C)(C)C)C2CCC(C2)C1=O` (stereo not shown) [Compound P2, 2,2-dimethylpropionic acid 3-[2-(4-chloro-phenyl)-5-ethylthiazol-4-yl]-4-oxobicyclo[3.2.1]oct-2-en-2-yl ester], the pest or weed control at 250 g/ha is 100% in the assay with Setaria faberi (SETFA) [1]; 100% in [2]; 100% in assay [3]; 0% in assay [4]; 100% in the assay with Avena fatua (AVEFA) [5]; 100% in the assay with Setaria faberi (SETFA) [6]. The pest or weed control at 250 g/ha in assay [7] was 80%; in [8], 100%; in assay [9], 0%; in the assay on Avena fatua (AVEFA) [10], 40%.
On to `Cc1ccc(-c2nc(C3C(=O)[C@@H]4CC[C@@H](C4)C3=O)c(C)s2)cc1` (stereo partly shown) [Compound T11], for which the pest or weed control at 250 g/ha was determined as 80% in the assay with Setaria faberi (SETFA) [1]; 90% in assay [2]; 100% in assay [3]; 0% in assay [4]; 40% in the assay with Avena fatua (AVEFA) [5]; 0% in the assay with Setaria faberi (SETFA) [6]. Also, the pest or weed control at 250 g/ha in [7] was found to be 40%; in assay [8], 70%; in assay [9] it was 0%; in the assay with Avena fatua (AVEFA) [10], 0%.
For `CCc1sc(-c2ccccc2)nc1C1C(=O)[C@@H]2CC[C@@H](C2)C1=O` (stereo partly shown) [Compound T93], the pest or weed control at 250 g/ha in the assay on Setaria faberi (SETFA) [1] amounted to 70%; in assay [2], 30%; in assay [3], 70%; in assay [4], 0%; in the assay on Avena fatua (AVEFA) [5], 0%; in the assay on Setaria faberi (SETFA) [6] it was 20%. The pest or weed control at 250 g/ha was found to be 20% in assay [7], 40% in assay [8], 0% in assay [9] and 0% in the assay with Avena fatua (AVEFA) [10].
Consider `CCc1sc(-c2ccc(C(F)(F)F)cc2)nc1C1C(=O)[C@@H]2CC[C@@H](C2)C1=O` (stereo partly shown) [Compound T96], for which the pest or weed control at 250 g/ha in the assay on Setaria faberi (SETFA) [1] is 100%; in [2], 100%; in [3], 100%; in assay [4] it was 30%; with Avena fatua (AVEFA) [5] it was 100%; with Setaria faberi (SETFA) [6], 100%. Also, the pest or weed control at 250 g/ha in assay [7] came out at 80%; in [8] it was 100%; in assay [9] it was 0%; in the assay with Avena fatua (AVEFA) [10] it was 100%.
Consider `CCc1sc(-c2ccc(OC(F)F)cc2)nc1C1C(=O)[C@@H]2CC[C@@H](C2)C1=O` (stereo partly shown) [Compound T44], for which the pest or weed control at 250 g/ha amounted to 100% with Setaria faberi (SETFA) [1]; 100% in [2]; 100% in assay [3]; 0% in assay [4]; 100% in the assay on Avena fatua (AVEFA) [5]; 100% in the assay on Setaria faberi (SETFA) [6]. The pest or weed control at 250 g/ha in assay [7] stood at 90%; in assay [8], 100%; in [9] it was 0%; in the assay with Avena fatua (AVEFA) [10], 60%.
Regarding `CCc1sc(-c2cc(F)c(Cl)cc2Cl)nc1C1C(=O)[C@@H]2CC[C@@H](C2)C1=O` (stereo partly shown) [Compound T53], the pest or weed control at 250 g/ha with Setaria faberi (SETFA) [1] is 100%; in assay [2] it was 100%; in assay [3], 100%; in [4], 0%; with Avena fatua (AVEFA) [5], 100%; in the assay with Setaria faberi (SETFA) [6], 100%. For the same compound, the pest or weed control at 250 g/ha in assay [7] stood at 90%; in [8] it was 100%; in [9], 0%; in the assay on Avena fatua (AVEFA) [10], 80%.
As to `CCc1sc(-c2ccc(Br)cc2)nc1C1C(=O)[C@@H]2CC[C@@H](C2)C1=O` (stereo partly shown) [Compound T28], the pest or weed control at 250 g/ha amounted to 100% with Setaria faberi (SETFA) [1]; 100% in [2]; 100% in assay [3]; 0% in assay [4]; 100% with Avena fatua (AVEFA) [5]; 100% in the assay on Setaria faberi (SETFA) [6]. For the same compound, the pest or weed control at 250 g/ha was 80% in [7], 100% in [8], 0% in assay [9] and 90% in the assay with Avena fatua (AVEFA) [10].
As to `CCc1sc(-c2ccc(Br)cc2C)nc1C1C(=O)[C@@H]2CC[C@@H](C2)C1=O` (stereo partly shown) [Compound T38], the pest or weed control at 250 g/ha in the assay on Setaria faberi (SETFA) [1] was found to be 100%; in assay [2], 100%; in [3], 100%; in assay [4], 0%; in the assay with Avena fatua (AVEFA) [5] it was 100%; in the assay with Setaria faberi (SETFA) [6] it was 100%. In addition, the pest or weed control at 250 g/ha in [7] is 60%; in [8], 70%; in [9], 0%; in the assay on Avena fatua (AVEFA) [10] it was 50%.
For `CCc1sc(-c2ccc3ccccc3c2)nc1C1C(=O)[C@@H]2CC[C@@H](C2)C1=O` (stereo partly shown) [Compound T99], the pest or weed control at 250 g/ha was determined as 100% in the assay with Setaria faberi (SETFA) [1]; 100% in assay [2]; 100% in assay [3]; 0% in assay [4]; 100% in the assay with Avena fatua (AVEFA) [5]; 60% in the assay with Setaria faberi (SETFA) [6]. The pest or weed control at 250 g/ha in assay [7] was 50%; in [8], 60%; in assay [9], 20%; with Avena fatua (AVEFA) [10], 30%.
Take `Cc1sc(-c2ccc3ccccc3c2)nc1C1C(=O)[C@@H]2CC[C@@H](C2)C1=O` (stereo partly shown) [Compound T63]: the pest or weed control at 250 g/ha in the assay on Setaria faberi (SETFA) [1] was 100%; in [2] it was 60%; in assay [3], 100%; in [4] it was 0%; in the assay on Avena fatua (AVEFA) [5], 70%; in the assay with Setaria faberi (SETFA) [6], 90%. In addition, the pest or weed control at 250 g/ha in assay [7] was 90%; in [8], 100%; in [9] it was 0%; in the assay with Avena fatua (AVEFA) [10] it was 90%.
